Results on twelve compounds are retold here after patent US20260265235A1, “BICYCLOAMINE CARBOXAMIDE DERIVATIVE” (Sumitomo Pharma Co., Ltd., priority 2022, published 2026).

This experiment has as its target T1, Human orexin receptor type 2 (Homo sapiens, UniProt O43614).
T1 construct: expressed in transfected cells; host or cells: CHO cells (transient expression, with apoaequorin)
T1 sequence (O43614 1-444): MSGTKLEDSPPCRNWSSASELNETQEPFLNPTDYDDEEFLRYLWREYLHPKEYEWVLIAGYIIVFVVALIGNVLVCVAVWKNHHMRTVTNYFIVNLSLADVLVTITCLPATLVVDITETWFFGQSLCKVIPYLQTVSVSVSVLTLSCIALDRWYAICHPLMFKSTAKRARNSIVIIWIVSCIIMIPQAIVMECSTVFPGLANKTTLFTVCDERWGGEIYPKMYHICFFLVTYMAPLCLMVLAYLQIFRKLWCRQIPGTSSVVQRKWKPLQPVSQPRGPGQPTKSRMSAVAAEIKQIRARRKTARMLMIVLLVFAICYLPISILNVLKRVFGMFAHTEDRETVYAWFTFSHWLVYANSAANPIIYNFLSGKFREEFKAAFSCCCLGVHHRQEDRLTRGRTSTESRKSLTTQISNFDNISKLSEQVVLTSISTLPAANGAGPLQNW
Nature of the experiment: Test Example 2: agonist activity for orexin receptor type 2 (aequorin luminescence, intracellular calcium mobilization in CHO cells). The class given is cell-based. To be noted: compound 10 μM; relative percentage of luminescence for the luminescence (100%) of Orexin A (100 μM); CHO cells transiently expressing human orexin receptor type 2 and apoaequorin. On the procedure:
Test Example 2: Measurement of Agonist Activity for Orexin Receptor Type 2
Human orexin receptor type 2 and apoaequorin were transiently expressed in CHO cells, and the agonist activity was evaluated based on intracellular calcium mobilization with ligand stimulation. The CHO cells transiently-expressed human orexin receptor type 2 and apoaequorin were seeded on a 384-well plate by 2,000 cells/well, and then incubated for 16-22 hours. After the plate was returned to room temperature, Coelenterazine hcp (final concentration: 1 μM) was added to the plate, and the plate was allowed to stand at room temperature for 2 hours. And then, Orexin A (PEPTIDE INSTITUTE, INC., Lot. 711101) or each test compound was added to the plate, and the luminescence of the cells was measured with FDSS7000 (Hamamatsu Photonics K.K.), wherein Orexin A and each test compound were dissolved in DMSO (final concentration: 0.1%), and diluted with a buffer (Hanks, 20 mM HEPES, 0.1% BSA). The agonist activity of each test compound for orexin receptor type 2 was calculated as relative percentage of luminescence for the luminescence (100%) of Orexin A (100 μM).
Each agonist activity of the compounds obtained in Examples (10 μM) for orexin receptor type 2 is shown in the table below as relative percentage of luminescence for the luminescence (100%) of Orexin A (100 μM).
(Calcium flux is commonly read through the fluorescence of an indicator in the cells.)

For the compound `CC(C)N1CC[C@H](O[C@H]2CCCC(F)(F)[C@@H]2NC(=O)N2C[C@H]3CC(c4ccccc4)C[C@H]3C2)C1` (stereo partly drawn) [Example 28, (3aR,5R,6aS)—N-[(1R,6S)-2,2-difluoro-6-{[(3S)-1-(propan-2-yl)pyrrolidin-3-yl]oxy}cyclohexyl]-5-phenylhexahydropenta[c]pyrrole-2(1H)-carboxamide], the “Agonist Activity (%)” value is listed as 400%.

For `CC(C)N1CCN([C@H]2CCCC(F)(F)[C@@H]2NC(=O)N2C[C@@H]3CN(c4ccccn4)C[C@@H]3C2)CC1` [Example 20, (3aR,6aS)—N-{(1R,6S)-2,2-difluoro-6-[4-(propan-2-yl)piperazin-1-yl]cyclohexyl}-5-(pyridin-2-yl)hexahydropyrrolo[3,4-c]pyrrole-2(1H)-carboxamide], the “Agonist Activity (%)” value was determined as 345%.

As to `CC(C)N1CCN([C@H]2CCCC(F)(F)[C@@H]2NC(=O)N2C[C@H]3C[C@@H](c4ncccn4)C[C@H]3C2)CC1` [Example 26, (3aR,5R,6aS)—N-{(1R,6S)-2,2-difluoro-6-[4-(propan-2-yl)piperazin-1-yl]cyclohexyl}-5-(pyrimidin-2-yl)hexahydropenta[c]pyrrole-2(1H)-carboxamide], the “Agonist Activity (%)” value is reported as 345%.

Consider `Cc1cccc([C@@H]2C[C@@H]3CN(C(=O)N[C@@H]4[C@@H](N5CCN(C(C)C)CC5)CCCC4(F)F)C[C@@H]3C2)c1` [Example 24, (3aR,5R,6aS)—N-{(1R,6S)-2,2-difluoro-6-[4-(propan-2-yl)piperazin-1-yl]cyclohexyl}-5-(3-methylphenyl)hexahydropenta[c]pyrrole-2(1H)-carboxamide], for which the “Agonist Activity (%)” value was determined as 414%.

In the case of `CC(C)N1CCN([C@H]2CCCC(F)(F)[C@@H]2NC(=O)N2C[C@@H]3CN(c4ccccc4F)C[C@@H]3C2)CC1` [Example 19, (3aR,6aS)—N-{(1R,6S)-2,2-difluoro-6-[4-(propan-2-yl)piperazin-1-yl]cyclohexyl}-5-(2-fluorophenyl)hexahydropyrrolo[3,4-c]pyrrole-2(1H)-carboxamide], the “Agonist Activity (%)” value is 390%.

As to `Cc1nc(C2C[C@H]3CC(C(=O)N[C@@H]4[C@@H](O[C@H]5CCN(C(C)C)C5)CCCC4(F)F)C[C@H]3C2)no1` (stereo partly drawn) [Example 32, (3aR,5R,6aS)—N-[(1R,6S)-2,2-difluoro-6-{[(3S)-1-(propan-2-yl)pyrrolidin-3-yl]oxy}cyclohexyl]-5-(5-methyl-1,2,4-oxadiazol-3-yl)hexahydropenta[c]pyrrole-2(1H)-carboxamide], the “Agonist Activity (%)” value amounted to 345%.

`Cc1nc(C2C[C@@H]3CN(C(=O)N[C@@H]4[C@@H](N(C)[C@H]5CCN(C(C)C)C5)CCCC4(F)F)C[C@@H]3C2)no1` (stereo partly drawn) [Example 31, (3aR,5R,6aS)—N-[(1R,6S)-2,2-difluoro-6-{methyl[(3S)-1-(propan-2-yl)pyrrolidin-3-yl]amino}cyclohexyl]-5-(5-methyl-1,2,4-oxadiazol-3-yl)hexahydropenta[c]pyrrole-2(1H)-carboxamide]: the “Agonist Activity (%)” value came out at 252%.

In the case of `Cc1ccc(N2C[C@H]3CN(C(=O)N[C@@H]4[C@@H](N5CCN(C(C)C)CC5)CCCC4(F)F)C[C@H]3C2)cc1` [Example 23, (3aR,6aS)—N-{(1R,6S)-2,2-difluoro-6-[4-(propan-2-yl)piperazin-1-yl]cyclohexyl}-5-(4-methylphenyl)hexahydropyrrolo[3,4-c]pyrrole-2(1H)-carboxamide], the “Agonist Activity (%)” value was found to be 404%.

For `Cc1nc([C@@H]2C[C@@H]3CN(C(=O)N[C@@H]4[C@@H](N5CCN(C(C)C)CC5)CCCC4(F)F)C[C@@H]3C2)no1` [Example 30, (3aR,5R,6aS)—N-{(1R,6S)-2,2-difluoro-6-[4-(propan-2-yl)piperazin-1-yl]cyclohexyl}-5-(5-methyl-1,2,4-oxadiazol-3-yl)hexahydropenta[c]pyrrole-2(1H)-carboxamide], the “Agonist Activity (%)” value came to 374%.

Take `CC(C)N1CCN([C@H]2CCCC(F)(F)[C@@H]2NC(=O)N2C[C@@H]3CN(c4cccc(F)c4)C[C@@H]3C2)CC1` [Example 22, (3aR,6aS)—N-{(1R,6S)-2,2-difluoro-6-[4-(propan-2-yl)piperazin-1-yl]cyclohexyl}-5-(3-fluorophenyl)hexahydropyrrolo[3,4-c]pyrrole-2(1H)-carboxamide]: the “Agonist Activity (%)” value was 399%.

On to `CC(C)N1CC[C@H](N(C)[C@H]2CCCC(F)(F)[C@@H]2NC(=O)N2C[C@@H]3CN(c4ccccc4)C[C@@H]3C2)C1` [Example 34, (3aR,6aS)—N-[(1R,6S)-2,2-difluoro-6-{methyl[(3S)-1-(propan-2-yl)pyrrolidin-3-yl]amino}cyclohexyl]-5-phenylhexahydropyrrolo[3,4-c]pyrrole-2(1H)-carboxamide], for which the “Agonist Activity (%)” value worked out at 341%.

In the case of `CC(C)N1CC[C@H](N(C)[C@H]2CCCC(F)(F)[C@@H]2NC(=O)N2C[C@H]3CC(c4ccccc4)C[C@H]3C2)C1` (stereo partly drawn) [Example 33, (3aR,5R,6aS)—N-[(1R,6S)-2,2-difluoro-6-{methyl[(3S)-1-(propan-2-yl)pyrrolidin-3-yl]amino}cyclohexyl]-5-phenylhexahydropenta[c]pyrrole-2(1H)-carboxamide], the “Agonist Activity (%)” value came to 343%.
